# Patent publication US9617311B2, “Use of PEDF-derived polypeptides for promoting stem cells proliferation and wound healing” (Mackay Memorial Hospital, priority 2011, dated 2017)
# Tests used:
# [1] = tested on: full-thickness skin excisional wounds; test: Skin wound healing in mice, histology with Masson's trichrome; type: in vivo, C57L/B6 mice; conditions: for residual epithelial defects, Masson's trichrome sections: day 7 after trauma, control ointment 43.5±6.5%; for area of GT (granulation tissue), folds over the control group / area of HE tissue, folds over that of the control group / residual epithelial defect, Masson's trichrome sections: day 4 after trauma; for area of GT (granulation tissue), folds over the control group / area of HE tissue, folds over that of the control group: edge of the wound; for residual epithelial defect, Masson's trichrome sections: sections of the middle of the wounds, control 63.8±5.8%
# Description: FIGS. 7A to 7E provide quantification of wound healing at day 4. […] Arrowheads (▾) and arrows (↓) denote initial wound margins and the foremost tips of the hyperproliferative epithelium (HE; red color), respectively. Data are representative of 10-16 wounds (2 wounds per mouse) in each group. *P<0.02 versus control wound. FIG. 7B is a histogram illustrating the residual epithelial defect (%) in mice from each treatment group; only sections of the middle of the wounds were used for quantification. Data are shown as mean±SE. FIG. 7C provides representative photographs of wound edge. GT: granulation tissue (blue color); Es: eschar (deep-red). […] FIGS. 7D and 7E are histograms providing quantifications of the areas of HE and GT using Adobe Photoshop CS3 10.0. *P<0.02 versus control wound.
# FIGS. 8A and 8B provide quantification of wound healing at day 7. […] Arrowheads (▾) and arrows (↓) denote initial wound margins and the foremost tips of the hyperproliferative epithelium, respectively. FIG. 8B is a histogram illustrating the residual epithelial defect (%) in mice from each treatment group; only sections of the middle of the wounds were used for quantification. Data are shown as mean±SE. *P<0.05 versus control wound.
# To perform full-thickness skin excision, 8- to 10-week-old C57L/B6 mice were respectively anesthetized by an intraperitoneal injection of a mixture of zoletil (6 mg/kg) and xylazine (3 mg/kg). Two full-thickness skin excisional wounds, 4 mm in diameter were made on either side of the dorsal midline using Sklar Tru-Punch disposable biopsy punch (Sklar, West Chester, Pa., USA). In each treatment group (n=6), the skin wound was treated with 25 μl skin ointment (containing 50 μM synthetic peptide and 0.006 μl DMSO vehicle) once daily after the skin scraping. In the control group (n=6), skin wound was treated with 25 μl of skin ointment with equal concentration of DMSO. Each gram of the above skin ointment contains 5 mg neomycin sulfate and 12.5 mg Bacitracin Zinc. Wounds were left uncovered and harvested 4 and 7 days after injury. Mice were housed individually during the healing period.
# For histological analysis the complete wounds including 2 mm of the epithelial margins was isolated, bisected, fixed overnight in 4% PFA in PBS, and embedded in paraffin. Sections (5 μm) from the middle of the wound were stained using the Masson's trichrome procedure as described by the manufacturer, in which the epithelium was stained red and connective tissue was stained blue. Photographs were taken using a Leica DC 500 camera (Leica Microsystems).
# To further confirm the efficacy of 29-mer and 20-mer on skin wound repair, skin sections from day 4 after trauma were stained using the Masson's trichrome. […] The residual epithelial defect of 29-mer and 20-mer-treated groups were 52.7±6.2% and 49.7±5.6%, respectively; as compared to control animals of 63.8±5.8% (FIG. 7B). In addition, 29-mer treatment elevated the thicknesses of hyper-proliferative epithelial (HE) tissue and granulation tissue (GT) around the edge of the wound (FIG. 7C).
# Masson's trichrome was used to stain skin sections obtained from day 7 after trauma for the measurement of the wound closure.
# [2] = tested on: hair follicle stem cells (HFSCs); test: In vitro HFSC proliferation, BrdU pulse-labeling with Lgr6 immunostaining; type: cell-based, Human; conditions: 50 nM peptide or 4.5 nM PEDF in medium; BrdU 2 hours; control 31.9±5.6%
# Protocol: FIG. 5A provides immunofluorescence microscopy photographs and FIG. 5B is a histogram, and together, they illustrate the in vitro proliferation of HFSCs from treatment groups according to one example of the present disclosure. HFSC proliferation was determined by BrdU labeling for 2 hours. HFSCs (Lgr6, green) and BrdU (red) were detected by immunofluorescence microscopy (original magnification, ×1000). Twenty randomly selected fields in each group were photographed, and the percentage of BrdU and Lgr6-double positive cells (pale pink) per total Lgr6-positive cells was calculated. *P<0.001 versus untreated cells.
# Human hair follicles were collected from hairs of healthy donors. The follicles were dissected with tweezers under microscope and most of adipose and connective tissue was removed. The bulge region of hair follicle under the sebaceous gland was cut and then bulge fragments (including central isthmus) were transferred into a 35-mm dish containing 1 ml of collagenase A (1 mg/ml; Roche) and incubated for 1.5 hours at 37° C. to digest the collagen capsule. Subsequently, the bulge fragments were transferred into a fresh cell culture dish containing dispase II (2.4 U/ml)/0.05% trypsin and further incubated for 1.5 hours at 37° C. to obtain a single cell suspension.
# After mechanical dissection and enzymatic digestion, the suspended bulge cells isolated from five bulge fragments were seeded into a well of 12-well culture plate and incubated with the basal medium for 5 days to facilitate cell adhesion. The basal medium contains four parts Gibco calcium-free Dulbecco's modified Eagle's medium (DMEM) and one part Ham's F12 medium (calcium concentration reached about 0.25 mM) and supplemented with 10% FBS, 10 ng/ml human epidermal growth factor, 500 mg/I L-glutamine, 0.2% bovine pituitary extract, […] hydrocortisone, 1% ITSE as well as antibiotic-antimicotic solutions. Cultivation method was similar to that of Blazejewska et al. (Stem Cells 2009; 27:642). After 5 days of incubation, cells were cultured in the serum-free basal medium or basal medium containing 4.5 nM PEDF, 50 nM 29-mer, or 50 nM 20-mer, until near confluence (about 2 weeks; passage 0). The medium was changed every 2 to 3 days. The bulge cells were co-cultured with 3T3 fibroblast feeder cells. For passage, near-confluent cells were harvested by enzymatic treatment (i.e., 0.25% trypsin) for 5 min at 37° C. Approximately 1×10^5 human bulge cells were transferred to a new dish and allowed to grow for 14 days to near confluence (passage 1). […]
Sequence,"residual epithelial defects, Masson's trichrome sections [1] [%]",percentage of BrdU and Lgr6-double positive cells per total Lgr6-positive cells [2] [%],"area of GT (granulation tissue), folds over the control group [1] [folds]","area of HE tissue, folds over that of the control group [1] [folds]","residual epithelial defect, Masson's trichrome sections [1] [%]"
"SLGAEHRTESVIHRALYYDLITNPDIHST [Mo 29-mer, synthetic peptide derived from mouse PEDF]",17.2±7.3,–,–,–,–
EQRTESIIHRALYYDLIS [18-mer],–,30.1±6.3,–,–,–
"SLGAEQRTESIIHRALYYDLISSPDIHGT [29-mer, short synthetic PEDF peptide derived from the 39-mer]",17.9±3.3,86.2±3.9,1.45±0.23,1.41±0.25,52.7±6.2
"SLGAEQRTESIIHRALYYDL [20-mer, synthetic peptide identical to residues 11-30 of the 39-mer]",20.8±6.1,79.5±2.6,1.37±0.17,1.32±0.21,49.7±5.6
